# Results as given in ChEMBL document CHEMBL3627717, “Multivalent LKγ-PNA oligomers bind to a human telomere DNA G-rich sequence to form quadruplexes” (Bioorg Med Chem Lett, 2015).
# Tested on: DNA
# Test: Binding affinity to human truncated telomeric DNA1 assessed as melting temperature at 20 uM by UV melting curve analysis (reference value: 58.9 +/- 0.3 degC)
# Type: nucleic-acid assay
row,Tm,Structure (SMILES)
1,57.3 °C,CC(=O)NCCN(CC(=O)NCCN(CC(=O)NCCN(CC(=O)NCCN(CC(=O)NCCN(CC(=O)NC(CCCCN(C)C)C(N)=O)C(=O)Cn1cc(C)c(=O)[nH]c1=O)C(=O)Cn1cnc2c(=O)[nH]c(N)nc21)C(=O)Cn1cnc2c(=O)[nH]c(N)nc21)C(=O)Cn1cnc2c(=O)[nH]c(N)nc21)C(=O)Cn1cc(C)c(=O)[nH]c1=O (centres undefined)
2,59.1 °C,CC(=O)NCCN(CC(=O)NC(CCCCN)CN(CC(=O)NC(CCCCN)CN(CC(=O)NC(CCCCN)CN(CC(=O)NCCN(CC(=O)NC(CCCCN(C)C)C(N)=O)C(=O)Cn1cc(C)c(=O)[nH]c1=O)C(=O)Cn1cnc2c(=O)[nH]c(N)nc21)C(=O)Cn1cnc2c(=O)[nH]c(N)nc21)C(=O)Cn1cnc2c(=O)[nH]c(N)nc21)C(=O)Cn1cc(C)c(=O)[nH]c1=O (centres undefined)
3,60.2 °C,CC(=O)NCCN(CC(=O)NCCN(CC(=O)NC(CCCCN)CN(CC(=O)NCCN(CC(=O)NCCN(CC(=O)NC(CCCCN(C)C)C(N)=O)C(=O)Cn1cc(C)c(=O)[nH]c1=O)C(=O)Cn1cnc2c(=O)[nH]c(N)nc21)C(=O)Cn1cnc2c(=O)[nH]c(N)nc21)C(=O)Cn1cnc2c(=O)[nH]c(N)nc21)C(=O)Cn1cc(C)c(=O)[nH]c1=O (centres undefined)
4,58.4 °C,CC(=O)NCCN(CC(=O)NC(CCCCN)CN(CC(=O)NCCN(CC(=O)NC(CCCCN)CN(CC(=O)NCCN(CC(=O)NC(CCCCN(C)C)C(N)=O)C(=O)Cn1cc(C)c(=O)[nH]c1=O)C(=O)Cn1cnc2c(=O)[nH]c(N)nc21)C(=O)Cn1cnc2c(=O)[nH]c(N)nc21)C(=O)Cn1cnc2c(=O)[nH]c(N)nc21)C(=O)Cn1cc(C)c(=O)[nH]c1=O (centres undefined)
